Results on 2 molecules are retold here after patent US8394852B2, “Inotilone derivatives as coherent biological response modifier (cBMR)” (Sami Labs Ltd, priority 2009, dated 2013).

Assay [1] has as its system COX-2. Briefly: LPS-induced COX-2 protein expression by Western blotting in RAW 264.7 cells. It is filed as cell-based, murine. To be noted: E coli LPS 100 ng/mL, co-treatment. The method, then: (§1) RAW 264.7 cells, derived from murine macrophage (American Type Culture Collection, MD, USA) were cultured in DMEM supplemented with 10% endotoxin-free, heat-inactivated fetal calf serum, 100 units/mL penicillin and 100 mcg/mL streptomycin, the culture media was changed to serum-free DMEM without phenol red on reaching cell density 2-3×10^6 cells/mL, and the cells activated by incubation in medium containing E coli LPS (100 ng/mL). Test compounds dissolved in dimethylsulfoxide were added together with the LPS. Cells treated with 0.05% DMSO acted as vehicle control.
(§2) The effects of test compounds on LPS-induced iNOS (inducible nitric oxide synthase) and COX-2 protein expressions were studied by Western blotting.
In general terms: A western blot detects proteins with antibodies after separation by electrophoresis.

For assay [2], the system named is iNOS (inducible nitric oxide synthase). The experiment in a line: LPS-induced iNOS protein expression by Western blotting in RAW 264.7 cells. It is filed as cell-based, murine. To be noted: E coli LPS 100 ng/mL, co-treatment. The method, then: as §1, §2
The test system of a further assay is iNOS. Conditions: cited from earlier work.
The test system of assay [3] is PI3K/Akt and extracellular signal-regulated kinase 1/2 and p38 mitogen-activated protein kinase. To be noted: cited from earlier work.
Assay [4] concerns nuclear factor-kappaB (NFkappaB). Conditions: cited from earlier work.
The subject of assay [5] is COX-2. Conditions: through decreasing the enzyme activity of COX-2; cited from earlier work.

As to `COc1cc(/C=C2\OC(C)=CC2=O)ccc1O` [4b, 2-(4-Hydroxy-3-methoxy-benzylidene)-5-methyl-furan-3-one], the “effect on LPS-induced COX-2 protein expression” value in the assay on COX-2 [1] is recorded as “slightly stimulated LPS-induced COX-2 expression”. Moreover, in assay [2], the “effect on LPS-induced iNOS protein expression” value is recorded as “no effect on LPS induced iNOS protein expression”.

For `CC1=CC(=O)/C(=C/c2ccc(O)c(O)c2)O1` [4a, Inotilone], the “effect on LPS-induced COX-2 protein expression” value in the assay on COX-2 [1] is reported as “but not of COX-2”. The “protein and mRNA expression of iNOS” value in the assay with iNOS is “blocked protein and mRNA expression of iNOS”. In addition, the “LPS-induced activation of PI3K/Akt, ERK 1/2 and p38 MAPK” value in assay [3] was “inhibited LPS-induced activation of PI3K/Akt and extracellular signal-regulated kinase 1/2 and p38 mitogen-activated protein kinase”. In addition, the “LPS-induced nuclear translocation of NFkappaB subunit and NFkappaB-dependent transcriptional activity” value in assay [4] was “reduction of LPS-induced nuclear translocation of NFkappaB subunit and the NFkappaB-dependent transcriptional activity”. In the assay with COX-2 [5], the “prostaglandin E(2) production” value is reported as “inhibited prostaglandin E(2) production”. For the same molecule, in assay [2], the “effect on LPS-induced iNOS protein expression” value was “suppressed the induction of iNOS”.
